This passage reports melting point results from patent US7291641B2, “Derivatives of heterocycles with 5 members, their preparation and their use as medicaments” (Societe de Conseils de Recherches et d'Applications …, priority 1999, dated 2007).

Molecules are shown by their SMILES. Where a name gives a salt, the structure may show the parent alone. Bounds are passed on as bounds.

What is called melting point is the temperature of the solid-liquid transition. On to `c1ccc(CNCc2nc(-c3ccccc3)cn2Cc2ccccc2)cc1` [Example 110, N-benzyl(1-benzyl-4-phenyl-1H-imidazol-2-yl)methanamine], for which the melting point lay within 60 to 62 °C.

On to `Fc1ccc(-c2c[nH]c([C@@H](NCC3CC3)C3CCCCC3)n2)cc1` (as salt: hydrochloride) [Example 273, (S)-cyclohexyl-N-(cyclopropylmethyl)[4-(4-fluorophenyl)-1H-imidazol-2-yl]-methanamine], for which the melting point amounted to 221.4 °C.

Take `Brc1cccc(-c2c[nH]c([C@@H](NC3CCCCC3)C3CCCCC3)n2)c1` (as salt: hydrochloride) [Example 297, N-[(S)-[4-(3-bromophenyl)-1H-imidazol-2-yl](cyclohexyl)methyl]-cyclohexanamine]: the melting point was found to be 230.4 °C.

Regarding `CCCCOC(=O)NCCc1nc(-c2ccc(-c3ccc(Cl)cc3)cc2)c[nH]1` [Example 395, butyl 2-[4-(4′-chloro-1,1′-biphenyl-4-yl)-1H-imidazol-2-yl]ethylcarbamate], the melting point stood at 164.2 °C.

Turning to `CCCCCCNC(CCCCCC)c1nc(-c2ccccc2)c[nH]1` (racemic) [Example 64, (R,S)-N-hexyl-1-(4-phenyl-1H-imidazol-2-yl)-1-heptanamine], the melting point is 140 to 142 °C.

Take `CCCCOC(=O)NCc1nc(-c2ccc(-c3ccccc3)cc2)c[nH]1` [Example 78, butyl (4-[1,1′-biphenyl]-4-yl-1H-imidazol-2-yl)methylcarbamate]: the melting point was in the range of 130 to 132 °C.

`CCCCCCC(NCc1ccccc1)c1nc(-c2ccc(C#N)cc2)c[nH]1` (racemic) [Example 217, (R,S)-4-{2-[1-(benzylamino)heptyl]-1H-imidazol-4-yl}benzonitrile] yielded a melting point of 188 to 189 °C.

Molecule `CCCCOC(=O)NCCc1nc(-c2ccc(-c3cccc(Cl)c3)cc2)c[nH]1` [Example 443, butyl 2-[4-(3′-chloro-1,1′-biphenyl-4-yl)-1H-imidazol-2-yl]ethylcarbamate] yielded a melting point of 142.6 °C.

`CNCc1nc(-c2ccc(-c3ccccc3)cc2)c[nH]1` (as salt: hydrochloride) [Example 155, (4-[1,1′-biphenyl]-4-yl-1H-imidazol-2-yl)-N-methylmethanamine]: the melting point was in the range of 218 to 220 °C.

The molecule `CCC[C@@H](N)c1nc(-c2ccccc2)c[nH]1` (as salt: hydrochloride) [Example 211, (1R)-1-(4-phenyl-1H-imidazol-2-yl)-1-butanamine] returned a melting point of 182 to 184 °C.

For `NC1(c2nc(-c3ccccc3)c[nH]2)CCCCC1` (as salt: hydrochloride), the melting point is 202 to 204 °C.

`c1ccc(-c2c[nH]c([C@@H](Cc3c[nH]c4ccccc34)Nc3ncccn3)n2)cc1` [Example 44, N-[(1R)-2-(1H-indol-3-yl)-1-(4-phenyl-1H-imidazol-2-yl)ethyl]-2-pyrimidinamine] registered a melting point of 138 to 140 °C.

The molecule `CCCCOC(=O)NCCc1nc(-c2ccc(-c3ccccc3Cl)cc2)c[nH]1` [Example 454, butyl 2-[4-(2′-chloro-1,1′-biphenyl-4-yl)-1H-imidazol-2-yl]ethylcarbamate] had a melting point of 99.7 °C.

`CC(C)(C)COC(=O)NCCc1nc(-c2ccc(-c3ccccc3)cc2)c[nH]1` [Example 203, 4-[2-(2-{[(neopentyloxy)carbonyl]amino}ethyl)-1H-imidazol-4-yl]-1,1′-biphenyl] came in with a melting point of 162 to 164 °C.

In turn, `O=C(NCCc1nc(-c2ccc(-c3ccc(Br)cc3)cc2)c[nH]1)OCC1CCC1` (as salt: hydrochloride) [Example 337, cyclobutylmethyl 2-[4-(4′-bromo-1,1′-biphenyl-4-yl)-1H-imidazol-2-yl]ethylcarbamate] displayed a melting point of 214 to 215 °C.

`COC(=O)NCCc1nc(-c2ccc(-c3ccccc3)cc2)c[nH]1` [Example 244, 4-(2-{2-[(methoxycarbonyl)amino]ethyl}-1H-imidazol-4-yl)-1,1′-biphenyl] displayed a melting point of 177.2 °C.

Regarding `Fc1ccc(-c2c[nH]c([C@@H](NC3CCCCC3)C3CCCCC3)n2)cc1` [Example 283, N-{(S)-cyclohexyl[4-(4-fluorophenyl)-1H-imidazol-2-yl]methyl}-cyclohexanamine], the melting point lay within 260 to 262 °C.

Consider `CC(C)(NCc1ccccc1)c1nc(-c2ccccc2)c[nH]1` [Example 139, N-benzyl-2-(4-phenyl-1H-imidazol-2-yl)-2-propanamine], for which the melting point was 136 to 138 °C.

Take `CCCCOC(=O)NCCc1nc(-c2ccc(C3CCCCC3)cc2)c[nH]1` [Example 268, butyl 2-[4-(4-cyclohexylphenyl)-1H-imidazol-2-yl]ethylcarbamate]: the melting point is 138.4 °C.

`CCCCOC(=O)NCCc1nc(-c2ccc(-c3ccccc3)cc2)c(CC)[nH]1` [Example 453, butyl 2-[4-(1,1′-biphenyl-4-yl)-5-ethyl-1H-imidazol-2-yl]ethylcarbamate] showed a melting point of 127 to 128 °C.

`COCCOC(=O)NCCc1nc(-c2ccc(-c3ccccc3)cc2)c[nH]1` [Example 288, 4-[2-(2-{[(2-methoxyethoxy)carbonyl]amino}ethyl)-1H-imidazol-4-yl]-1,1′-biphenyl] showed a melting point of 123.3 °C.

Molecule `CCCCC(NCc1ccccc1)c1nc(-c2ccccc2)c[nH]1` (racemic) [Example 186, (R,S)-N-benzyl-1-(4-phenyl-1H-imidazol-2-yl)-1-pentanamine] displayed a melting point of 200 to 202 °C.

In the case of `c1[nH]c([C@@H](NC2CCCCC2)C2CCCCC2)nc1C1CCCCC1` (as salt: hydrochloride) [Example 82, N-[(S)-cyclohexyl(4-cyclohexyl-1H-imidazol-2-yl)methyl]-cyclohexanamine], the melting point lay in the range of 180 to 182 °C.

Molecule `NCc1nc(-c2ccccc2)cn1Cc1ccccc1` (as salt: hydrochloride) [Example 107, (1-benzyl-4-phenyl-1H-imidazol-2-yl)methanamine] showed a melting point of 248 to 250 °C.

`O=C(NCCc1nc(-c2ccc(N3CCCC3)cc2)c[nH]1)OCCCC(F)(F)F` [Example 385, 4,4,4-trifluorobutyl 2-[4-(4-pyrrolidin-1-ylphenyl)-1H-imidazol-2-yl]ethylcarbamate] yielded a melting point of 148.3 °C.

Regarding `CCCCCCC(N)c1nc(-c2ccc(-c3ccccc3)cc2)c[nH]1` (racemic) (as salt: hydrochloride) [Example 188, (R,S)-1-(4-[1,1′-biphenyl]-4-yl-1H-imidazol-2-yl)-heptanamine], the melting point was in the range of 182 to 184 °C.

`CC[C@H](N)c1nc(-c2ccc(-c3ccccc3)cc2)c[nH]1` (as salt: hydrochloride) [Example 196, (1S)-1-(4-[1,1′-biphenyl]-4-yl-1H-imidazol-2-yl)-1-propanamine] returned a melting point of over 250 °C.

Molecule `CCCCOC(=O)NCCc1nc(-c2ccc(N3CCCC3)cc2)c[nH]1` (as salt: hydrochloride) [Example 317, butyl 2-[4-(4-pyrrolidin-1-ylphenyl)-1H-imidazol-2-yl]ethylcarbamate] showed a melting point of 165 to 166 °C.

With `CC[C@H](NCc1ccccc1)c1nc(-c2ccccc2)c(-c2ccccc2)[nH]1` [Example 204, (1S)-N-benzyl-1-(4,5-diphenyl-1H-imidazol-2-yl)-1-propanamine], the melting point lay within 182 to 184 °C.

`CCCCOC(=O)NCCc1nc(-c2ccc(C(C)(C)C)cc2)c[nH]1` [Example 294, butyl 2-[4-(4-tert-butylphenyl)-1H-imidazol-2-yl]ethylcarbamate]: the melting point lay in the range of 106 to 108 °C.

Molecule `CCC[C@@H](NCc1ccccc1)c1nc(-c2ccc(-c3ccccc3)cc2)c[nH]1` [Example 213, (1R)-N-benzyl-1-(4-[1,1′-biphenyl]-4-yl-1H-imidazol-2-yl)-1-butanamine] displayed a melting point of 78.6 °C.

Molecule `CC(C)(C)c1ccc(-c2c[nH]c(CCNC(=O)OCc3ccccc3)n2)cc1` [Example 382, benzyl 2-[4-(4-tert-butylphenyl)-1H-imidazol-2-yl]ethylcarbamate] registered a melting point of 173 °C.

`c1ccc(CN(Cc2ccccc2)Cc2nc(-c3ccc(-c4ccccc4)cc3)c[nH]2)cc1` [Example 144, N,N-dibenzyl(4-[1,1′-biphenyl]4-yl-1H-imidazol-2-yl)methanamine] had a melting point of 70 to 74 °C.

`CCCCCCC(N)c1nc(-c2ccc(C)cc2)c[nH]1` (racemic) (as salt: hydrochloride) [Example 184, (R,S)-1-[4-(4-methylphenyl)-1H-imidazol-2-yl]-1-heptanamine] displayed a melting point of 157 to 160 °C.

In turn, `CCCCC(N)c1nc(-c2ccc(-c3ccccc3)cc2)c[nH]1` (racemic) (as salt: hydrochloride) [Example 175, (R,S)-1-(4-[1,1′-biphenyl]-4-yl-1H-imidazol-2-yl)-1-pentanamine] had a melting point of 197 to 200 °C.

`CC(C)C[C@@H](NCc1ccccc1)c1nc(-c2ccccc2)c[nH]1` [Example 125, (1R)-N-benzyl-3-methyl-1-(4-phenyl-1H-imidazol-2-yl)-1-butanamine] came in with a melting point of 134 to 135 °C.

In the case of `CCCCCCC(N)c1nc(-c2ccc(OC)cc2)c[nH]1` (racemic) (as salt: hydrochloride) [Example 190, (R,S)-1-[4-(4-methoxyphenyl)-1H-imidazol-2-yl]heptylamine], the melting point was in the range of 231 to 232 °C.

As to `CC(C)(C)OC(=O)NCc1nc(-c2ccccc2)c[nH]1` [Example 103, tert-butyl (4-phenyl-1H-imidazol-2-yl)methylcarbamate], the melting point fell in the range of 170 to 172 °C.

With `c1ccc(CC[C@@H](NCc2ccccc2)c2nc(-c3ccc(-c4ccccc4)cc3)c[nH]2)cc1` [Example 170, (1R)-N-benzyl-1-(4-[1,1′-biphenyl]-4-yl-1H-imidazol-2-yl)-3-phenyl-1-propanamine], the melting point is 210 to 213 °C.

For the molecule `CCCCCCC(N)c1nc(-c2ccc(C#N)cc2)c[nH]1` (racemic) (as salt: hydrochloride) [Example 205, (R,S)-4-[2-(1-aminoheptyl)-1H-imidazol-4-yl]benzonitrile], the melting point is 218 to 220 °C.
